Laboratory results published in patent US6114517A, “Methods of modulating tumor necrosis factor α-induced expression of cell adhesion molecules” (Isis Pharmaceuticals Inc., priority 1998, dated 2000).

Experiments:
Type in all cases: cell-based, human
E-selectin = test: TNF-α-induced E-selectin cell surface expression in HMVEC, flow cytometry; settings: for time of maximal inhibition of E-selectin induction: following antisense treatment
Method: (§1) Human dermal microvascular cells (HMVEC-d; Clonetics, San Diego, Calif.) were cultivated in endothelial basal media (EBM, Clonetics) supplemented with 10% fetal bovine serum (HyClone, Logan, Utah). Cells were grown in 100 mm petri dishes until 70-80% confluent, then washed with PBS and OPTI-MEM (Life Technologies, Inc., Gaithersburg, Md.). The cells were then incubated in the presence of OPTI-MEM and […] LIPOFECTIN (a 1:1 (w/w) liposome formulation of the cationic lipid N-[1-(2,3-dioleyloxy)propyl]-n,n,n-trimethylammonium chloride (DOTMA), and dioleoyl phosphotidylethanolamine (DOPE) in membrane filtered water (Life Technologies, Gaithersburg, Md.), per 100 nM of oligonucleotide followed by addition of oligonucleotide at the appropriate concentrations.
(§2) The effect of c-raf and Ha-ras antisense oligonucleotide treatment on the induction of E-selectin by TNF-α was examined. HMVEC cells were treated with either the c-raf or Ha-ras antisense compound under dose-response conditions or over time at a single dose level followed by stimulation of E-selectin expression by TNF-α for 5 hours. The cell surface expression of E-selectin was determined by flow cytometry analysis. Following oligonucleotide treatment, cells were detached from the plates and analyzed for surface expression of cell adhesion molecules using a Becton Dickinson (San Jose, Calif.) FACScan. TNF-α and FITC conjugated antibody for E-selectin were obtained from R & D Systems (Minneapolis, Minn.). PE-conjugated antibody for ICAM-1 was obtained from Pharmingen (San Diego, Calif.). VCAM-1 antibody was obtained from Santa Cruz Biotechnology, Santa Cruz, Calif. Cell surface expression was calculated using the mean value of fluorescence intensity using 3,000-5,000 cells stained with the appropriate antibody for each sample and time point. Results are expressed as percentage of control (cell surface expression induced by TNF-α in cells that were not treated with oligonucleotides) based upon mean fluorescence intensity.
The effects of c-raf, Ha-ras, and a E-selectin antisense oligonucleotide on TNF-α-induced E-selectin cell surface expression under kinetic conditions were examined. […] To test this, cells were treated, separately, with antisense oligonucleotides to E-selectin, ICAM-1 and VCAM-1 and allowed to recover prior to TNF-α treatment. […] E-selectin cell surface expression was measured by flow cytometry analysis after 5 hours of TNF-A treatment.

ICAM-1 = test: TNF-α-induced ICAM-1 cell surface expression in HMVEC, flow cytometry; settings: for maximal inhibition of induction of ICAM-1 by TNF-α: dose response
Method: as §1
as §2, with “intensity. Basal expression of E-selectin and VCAM-1 is undetectable in the absence of TNF-α whereas a low level of basal expression is detectable for ICAM-1.” for “intensity.”
(§3) TNF-α induction of ICAM-1 and VCAM-1 in cells treated with c-raf and Ha-ras antisense oligonucleotides was also examined to further define the roles of c-raf and Ha-ras in cytokine signaling. Oligonucleotides were tested, using flow cytometry analysis, as described in Example 4. Results are shown in Table 6 (ICAM-1) and Table 7 (VCAM-1).

VCAM-1 = test: TNF-α-induced VCAM-1 cell surface expression in HMVEC, flow cytometry; settings: for Maximum inhibition of induction of VCAM-1 by TNF-α: dose response
Method: as §1
as §2, with “intensity. Basal expression of E-selectin and VCAM-1 is undetectable in the absence of TNF-α whereas a low level of basal expression is detectable for ICAM-1.” for “intensity.”
as §3

E-selectin mRNA = test: TNF-α-induced E-selectin mRNA, Northern blot; settings: 48 hrs recovery, TNF-α two to three hours before RNA analysis
Method: (§4) For determination of mRNA levels by Northern blot, total RNA was prepared from cells by the guanidinium isothiocyanate procedure or by the Qiagen RNAEASY method (Qiagen, Santa Clarita, Calif.) at the indicated times after initiation of oligonucleotide treatment. Northern blot analysis was performed as described in Current Protocols in Molecular Biology (Ausubel, F. M., et al., (eds), 1987, Greene Publishing Assoc. and Wiley Interscience, New York). A glyceraldehyde 3-phosphate dehydrogenase (G3PDH) probe was purchased from Clontech (Palo Alto, Calif., Catalog Number 9805-1). RNA was quantified and normalized to G3PDH mRNA levels using a Molecular Dynamic PHOSPHORIMAGER (Sunnyvale, Calif.).
(§5) Northern blot analysis was carried out to examine whether c-raf and Ha-ras antisense oligonucleotides inhibit the induction of cell adhesion molecules at the transcriptional level. Cells were treated with c-raf (ISIS 12854, SEQ ID NO. 2) or Ha-ras (ISIS 15168, SEQ ID NO. 4) antisense oligonucleotides and allowed to recover for 48 hrs. TNF-α was added two to three hours prior to RNA analysis and Northern blotting was performed with probes specific for E-selectin, ICAM-1, and VCAM-1. The probe for E-selectin was obtained by PCR amplification using primers directed to HUMELAM1A (Genbank Accession No. M24736; SEQ ID NO. 18).

ICAM-1 mRNA = test: TNF-α-induced ICAM-1 mRNA, Northern blot; settings: 48 hrs recovery, TNF-α two to three hours before RNA analysis
Method: as §4, §5

VCAM-1 mRNA = test: TNF-α-induced VCAM-1 mRNA, Northern blot; settings: 48 hrs recovery, TNF-α two to three hours before RNA analysis
Method: as §4, §5

[1] = 25 nM, TNF-α for 5 hours, % of control
[2] = 75 nM, TNF-α for 5 hours, % of control
[3] = 150 nM, TNF-α for 5 hours, % of control
[4] = time course, 12 h/20 h after oligonucleotide treatment, TNF-α 5 hours
[5] = time course, 48 h after oligonucleotide treatment, TNF-α 5 hours
[6] = time course, 72 h after oligonucleotide treatment, TNF-α 5 hours

| Substance | % Cell Surface Expression (E-selectin) (E-selectin; [1]) | % Cell Surface Expression (E-selectin) (E-selectin; [2]) | % Cell Surface Expression (E-selectin) (E-selectin; [3]) | % Cell Surface Expression (E-selectin) (E-selectin; [4]) | % Cell Surface Expression (E-selectin) (E-selectin; [5]) | % Cell Surface Expression (E-selectin) (E-selectin; [6]) | % Cell Surface Expression (ICAM-1) (ICAM-1; 20 nM) | % Cell Surface Expression (ICAM-1) (ICAM-1; 50 nM) | % Cell Surface Expression (ICAM-1) (ICAM-1; 100 nM) | % Cell Surface Inhibition (ICAM-1) (ICAM-1; 100 nM) | % Cell Surface Expression (VCAM-1) (VCAM-1; 20 nM) | % Cell Surface Expression (VCAM-1) (VCAM-1; 50 nM) | % Cell Surface Inhibition (VCAM-1) (VCAM-1; 50 nM) | % Cell Surface Expression (VCAM-1) (VCAM-1; 100 nM) | % Cell Surface Inhibition (VCAM-1) (VCAM-1; 100 nM) | % mRNA Expression (E-selectin) (E-selectin mRNA) | % mRNA Inhibition (E-selectin) (E-selectin mRNA) | % mRNA Expression (ICAM-1) (ICAM-1 mRNA) | % mRNA Expression (VCAM-1) (VCAM-1 mRNA) | % Cell Surface Inhibition (E-selectin) (E-selectin; 25 nM, TNF-α for 5 hours) | other results |
| --- | --- | --- | --- | --- | --- | --- | --- | --- | --- | --- | --- | --- | --- | --- | --- | --- | --- | --- | --- | --- | --- |
| ToCoAsGsTsAsAsTsAsGsCsCsCoCoAoCoAoToGoG [ISIS 17552, reference compound] | 134% | 116% | 116% | 113% | 116% | 111% | 102% | 100% | 98% | 2% | 111% | 97% | 3% | 85% | 15% | 92% | 8% | 101% | 111% |  | effect on E-selectin induction (E-selectin; dose response, HMVEC): little to no effect |
| ToCoCoCoGoCsCsTsGsTsGsAsCsAsToGoCoAoToT [ISIS 12854] | 37% | 26% | 23% | 58% | 23% | 24% | 80% | 62% | 57% | 43% | 46% | 37% | 63% | 28% | 72% | 22% | 78% | 78% | 35% | 63% | % Cell Surface Inhibition (E-selectin) (E-selectin; 75 nM, TNF-α for 5 hours): 74%; % Cell Surface Inhibition (E-selectin) (E-selectin; 150 nM, TNF-α for 5 hours): 77%; Maximal inhibition of E-selectin induction (E-selectin; dose response, HMVEC): approximately 80%; time of maximal inhibition of E-selectin induction (E-selectin): 48 h; % Cell Surface Inhibition (E-selectin) (E-selectin; [4]): 42%; % Cell Surface Inhibition (E-selectin) (E-selectin; [5]): 77%; % Cell Surface Inhibition (E-selectin) (E-selectin; [6]): 76%; % Cell Surface Inhibition (ICAM-1) (ICAM-1; 20 nM): 20%; % Cell Surface Inhibition (ICAM-1) (ICAM-1; 50 nM): 38%; maximal inhibition of induction of ICAM-1 by TNF-α (ICAM-1): greater than 40%; % Cell Surface Inhibition (VCAM-1) (VCAM-1; 20 nM): 54%; Maximum inhibition of induction of VCAM-1 by TNF-α (VCAM-1): greater than 70%; % mRNA Inhibition (ICAM-1) (ICAM-1 mRNA): 22%; % mRNA Inhibition (VCAM-1) (VCAM-1 mRNA): 65% |
| ToCoCsGsTsCsAsTsCsGsCsTsCoCoToCoAoGoGoG [ISIS 15168] | 72% | 47% | 41% | 87% | 42% | 42% | 81% | 62% | 54% | 46% | 70% | 51% | 49% | 44% | 56% | 13% | 87% | 73% | 29% | 28% | % Cell Surface Inhibition (E-selectin) (E-selectin; 75 nM, TNF-α for 5 hours): 53%; % Cell Surface Inhibition (E-selectin) (E-selectin; 150 nM, TNF-α for 5 hours): 59%; Maximal inhibition of E-selectin induction (E-selectin; dose response, HMVEC): ~60%; time of maximal inhibition of E-selectin induction (E-selectin): 48 h; % Cell Surface Inhibition (E-selectin) (E-selectin; [4]): 13%; % Cell Surface Inhibition (E-selectin) (E-selectin; [5]): 58%; % Cell Surface Inhibition (E-selectin) (E-selectin; [6]): 58%; % Cell Surface Inhibition (ICAM-1) (ICAM-1; 20 nM): 19%; % Cell Surface Inhibition (ICAM-1) (ICAM-1; 50 nM): 38%; maximal inhibition of induction of ICAM-1 by TNF-α (ICAM-1): greater than 40%; % Cell Surface Inhibition (VCAM-1) (VCAM-1; 20 nM): 30%; Maximum inhibition of induction of VCAM-1 by TNF-α (VCAM-1): greater than 50%; % mRNA Inhibition (ICAM-1) (ICAM-1 mRNA): 27%; % mRNA Inhibition (VCAM-1) (VCAM-1 mRNA): 71% |
